Measurements taken from patent US10822317B2, “Methods and compositions for wound healing” (QBiotics Limited, priority 2013, dated 2020).

Tested on: mouse stroma of human SK-Mel-28 xenografts
Assay: Gene expression in mouse stroma of human tumour xenografts
Assay type: in vivo
Conditions: 30 μg intratumoural
Protocol: Mouse stroma in human tumour xenografts were obtained from mice in which the Sk-Mel-28 human melanoma cell line was injected subcutaneously into 2 sites on the flanks of each BALB/c FoxnInu mouse (2×10^6 cells/site) and allowed to grow to approximately 7 mm diameter. Each tumour was then injected with 50 μL of 20% propylene glycol containing 30 μg Compound 1 or with 50 µL of 20% propylene glycol. At different times after injection a mouse was euthanased and the tumours harvested, the skin covering removed, and the intact tumours stored at −80° C.
RNA was extracted from 30 mg of frozen tumour or 1×10^7 cells using the QiagenRNeasyPlus Mini Kit, according to manufacturer's instructions, then quantitated with a NanoDrop instrument and integrity confirmed on denaturing agarose gels bearing a 1 kb DNA marker and stained with ethidium bromide.
Approximately 500 ng of total unlabelled RNA was adjusted to a final volume of 11 μL with nuclease-free water. The RNA was incubated with 9 μL of the reverse transcriptase master mix (1 μL of T7 Oligo (dT) Primer, 2 μL of 10× first strand buffer, 4 μL of dNTP mix, 1 μL of RNase inhibitor and 1 μL of ArrayScript) at 42° C. for 2 hr. This was followed by the second strand cDNA synthesis step which involved a further incubation at 16° C. for 2 hr with 80 µL of the second strand master mix (63 μL nuclease-free water, 10 μL 10× second strand buffer, 4 μL dNTP mix, […] and 1 μL RNase H). The cDNA was purified by filtering through a cDNA Filter Cartridge with 250 μL of cDNA binding buffer and washing with 500 μL of the wash buffer provided in the kit. Purified cDNA was eluted with 20 μL of 55° C. nuclease-free water. Each cDNA sample was incubated with 7.5 μL of the IVT master mix (2.5 μL of T7 10× reaction buffer, 2.5 μL of T7 enzyme mix and 2.5 μL biotin-NTP mix) at 37° C. for 16 hr. The reaction was stopped with the addition of 75 μL of nuclease-free water to each cRNA sample. The biotinylated, amplified RNA was purified by filtering the cRNA samples through cRNA Filter Cartridges with 350 μL of cRNA binding buffer and 250 μL of 100% ethanol mixed together prior to loading onto the filters. The cRNA filter cartridges with attached RNA were then washed with 650 μL of wash buffer before eluting purified cRNA with 200 μL of 55° C. nuclease-free water.
The cRNA samples were heated at 65° C. for 5 min and collected by pulse centrifugation. After heating at 65 degrees for 5 min, approximately 750 ng of the cRNA sample was aliquoted into separate tubes to which were added ˜5 μL of RNase-free water and 10 μL of Hyb Mix. Approximately 15 μL of the prepared cRNA mix was loaded onto the Illumina Expression BeadChips. Subsequent steps of hybridisation and washing were carried out according to the Whole-Genome Gene Expression Direct Hybridization Assay Guide supplied by Illumina.
The Human HT-12 v4 Expression BeadChips cover more than 47,000 transcripts and known splice variants across the human transcriptome. The MouseRef-8 v2.0 Expression BeadChips cover approximately 25,600 well-annotated RefSeq (Reference Sequence) transcripts, comprising over 19,000 unique genes.
BeadChips were read by the iScan System, and transferred via GenomeStudio into GeneSpring GX v12.5 (Agilent Technologies, Santa Clara, Calif., USA). The expression values were normalized using quantile normalization with default settings. The entities were filtered based on the detection score calculated by GenomeStudio where p≤0.05 was considered significant.
Expression data using mouse gene-specific microarrays were performed for 2-3 individual human SK-Mel-28 xenografts treated by intratumoural injection with 30 μg of Compound 1, along with 3 vehicle-only sites, the data combined. Only those mouse genes for which expression in the Compound 1 treated site was >2 times higher or >2 times lower than in the vehicle-injected site were examined for relevance to wound healing.

CC=C(C)C(=O)OC1C(C)C2(O)C(C3OC3(CO)C(O)C3(O)C(=O)C(C)=CC32)C2C(C)(C)C12OC(=O)C(C)CC (stereo not drawn) [Compound 1, 12-tigloyl-13-(2-methylbutanoyl)-6,7-epoxy-4,5,9,12,13,20-hexahydroxy-1-tigliaen-3-one]
Acta1: Direction of regulation (0.5 h): Up | Tgm2: Direction of regulation (0.5 h): Up | Thbs2: Direction of regulation (0.5 h): Down | Thbs2: Fold change in expression (0.5 h, Down): 3.98 fold | Acta1: Fold change in expression (0.5 h, Up): 9.3 fold | Tgm2: Fold change in expression (0.5 h, Up): 2.67 fold | Col17a1: Direction of regulation (1 h): Up | Itga7: Direction of regulation (1 h): Up | Krt5: Direction of regulation (1 h): Up | Krt10: Direction of regulation (1 h): Up | Krt15: Direction of regulation (1 h): Up | Krt17: Direction of regulation (1 h): Up | Krtdap: Direction of regulation (1 h): Up | LCe1a1: Direction of regulation (1 h): Up | Lce1a2: Direction of regulation (1 h): Up | Lce1b: Direction of regulation (1 h): Up | Lce1m: Direction of regulation (1 h): Up | Lce1d: Direction of regulation (1 h): Up | Lor: Direction of regulation (1 h): Up | krt14: Direction of regulation (1 h): Up | Col17a1: Fold change in expression (1 h, Up): 2.7 fold | Itga7: Fold change in expression (1 h, Up): 2.1 fold | Krt5: Fold change in expression (1 h, Up): 2.8 fold | Krt10: Fold change in expression (1 h, Up): 7 fold | Krt15: Fold change in expression (1 h, Up): 2.3 fold | Krt17: Fold change in expression (1 h, Up): 2.9 fold | Krtdap: Fold change in expression (1 h, Up): 7 fold | LCe1a1: Fold change in expression (1 h, Up): 2.7 fold | Lce1a2: Fold change in expression (1 h, Up): 3 fold | Lce1b: Fold change in expression (1 h, Up): 4.8 fold | Lce1m: Fold change in expression (1 h, Up): 4.9 fold | Lce1d: Fold change in expression (1 h, Up): 3.3 fold | Lor: Fold change in expression (1 h, Up): 11.6 fold | krt14: Fold change in expression (1 h, Up): 9.4 fold | Col17a1: Direction of regulation (2 h): Up | Krt10: Direction of regulation (2 h): Up | Lor: Direction of regulation (2 h): Up | krt14: Direction of regulation (2 h): Up | Col17a1: Fold change in expression (2 h, Up): 2 fold | Krt10: Fold change in expression (2 h, Up): 2.4 fold | Lor: Fold change in expression (2 h, Up): 2.8 fold | krt14: Fold change in expression (2 h, Up): 5.6 fold | Acta1: Direction of regulation (4 h): Up | CXCL1: Direction of regulation (4 h): Up | Col17a1: Direction of regulation (4 h): Up | Egr1: Direction of regulation (4 h): Up | Krt10: Direction of regulation (4 h): Up | Krt17: Direction of regulation (4 h): Up | Krt71: Direction of regulation (4 h): Up | Krtdap: Direction of regulation (4 h): Up | LCe1a1: Direction of regulation (4 h): Up | Tgm2: Direction of regulation (4 h): Down | krt14: Direction of regulation (4 h): Up | Tgm2: Fold change in expression (4 h, Down): 2 fold | Acta1: Fold change in expression (4 h, Up): 30.3 fold | CXCL1: Fold change in expression (4 h, Up): 12.1 fold | Col17a1: Fold change in expression (4 h, Up): 3.2 fold | Egr1: Fold change in expression (4 h, Up): 4.7 fold | Krt10: Fold change in expression (4 h, Up): 8.6 fold | Krt17: Fold change in expression (4 h, Up): 10 fold | Krt71: Fold change in expression (4 h, Up): 3.2 fold | Krtdap: Fold change in expression (4 h, Up): 3.8 fold | LCe1a1: Fold change in expression (4 h, Up): 2.8 fold | krt14: Fold change in expression (4 h, Up): 9.7 fold | Acta1: Direction of regulation (8 h): Up | Egr1: Direction of regulation (8 h): Up | Krt10: Direction of regulation (8 h): Down | Krt17: Direction of regulation (8 h): Down | Krt10: Fold change in expression (8 h, Down): 2.1 fold | Krt17: Fold change in expression (8 h, Down): 2 fold | Acta1: Fold change in expression (8 h, Up): 8.5 fold | Egr1: Fold change in expression (8 h, Up): 5.34 fold
